Laboratory results taken from patent publication US5270316A, “Condensed purine derivatives” (Kyowa Hakko Kogyo Co., Ltd., priority 1989, dated 1993).
Where two headings read alike, the source gives them in different places.

Legend:
[1] = Acute toxicity, minimum lethal dose (oral, mice); format: in vivo; conditions: male dd-mice, mortality observed for seven days
Description: The compounds were orally administrated to male dd-mice weighing 20±1 g. Minimum lethal dose (MLD) was determined by observing the mortality for seven days after the administration.

[2] = Diuretic activity (oral, urine collected for 6 hours); format: in vivo, rat (Wistar male rats); conditions: Rattus norvegicus, rats; for response vs control in vivo at 25 mg/kg: 25 mg/kg oral; for response vs control in vivo at 1.6 mg/kg: 1.6 mg/kg oral; for response vs control in vivo at 6.25 mg/kg: 6.25 mg/kg oral
Description: Wistar male rats weighing 150 to 300 g were used after they were fasted for 18 hours. A test compound or saline (control) was orally administered to rats and urine was collected for 6 hours. The test was performed using 3 groups per the test compound, and each group consists of 3 animals. The urine was metered by a measuring cylinder and electrolytes (Na^+ and K^+) in the urine were assayed with a flame photometer (model […] manufactured by Hitachi Ltd.). Parameters in Table 3 are all expressed by relative value for control.

[3] = tested on: Glycerol-induced Renal Deficient Model; test: Renal protecting activity (glycerol-induced renal deficient model): serum creatinine and urea nitrogen; format: in vivo, rat (Wistar male rats); conditions: 10 mg/kg intraperitoneal, rats, 24 hours after glycerol injection, own control beside each compound; for Creatinine in serum, glycerol treated, test compound administrated: normal control 0.50; for Urea nitrogen in serum, glycerol treated, test compound administrated: normal control 15.2
Description: It is well known that subcutaneous or intramuscular administration of glycerol to rat induce acute renal insufficiency characterized by renal tubular disturbance [Can J. Physiol.
Wistar male rats (fasted both food and water for 18 hours) were used. A test compound or saline (control) was intraperitoneally administered (dose: 10 mg/kg) to rats. After 30 minutes rats were anesthesized with ether and the back skin was picked up and 0.8 ml/100 g of 50% glycerol was subcutaneously administered. 24 hours after the glycerol injection, the rats were anesthesized with ether and 5 ml of the blood was collected from the descending aorta. To obtain the serum, after allowing it to stand for 30 minutes or longer, the blood sample was centrifuged at 3000 rpm for 10 minutes. Creatinine in the serum sample was determined using autoanalyzer (AU510, Olympus) or clinical analysis kit of creatinine (Creatinine Test Wako; by Wako Pure Chemical Ind., Japan). Urea nitrogen in the serum was determined using autoanalyzer (AU510; made by Olympus Optical Co., Ltd, Japan) or clinical analysis kit of urea nitrogen (Urea nitrogen test wako; by Wako Pure Chemical Ind., Japan).

trachea = test: Passive Schultz-Dale reaction (bronchodilatory effects), relaxation of sensitized trachea strips; design: species or system guinea pig (Hartley male); conditions: Cavia porcellus; sensitized guinea pig trachea, EWA 1 μg/ml, 37° C.; read-out: Passive S-D reaction IC50 (concentration of 50% relaxation rate)
Description: Guinea pigs were passively sensitized as follows. […] After 24 hours, the guinea pigs were stunned and exsanguinated, and then trachea was excised. The zig-zag strips of the trachea were prepared by the method of Emmerson and Mackay [J. Pharm. […] After the contraction curves reached plateau the compounds were successively added in order to get cumulative concentration-relaxation curves.

[4] = tested on: Platelet Activating Factor (PAF)-induced mortality; test: Inhibition of Platelet Activating Factor (PAF)-induced mortality; format: in vivo, mouse (male dd mice); conditions: Mus musculus, 2 h, oral, mice, one hour before PAF 40 μg/kg i.v., p<0.05 vs control, read-out: PAF-induced mortality inhibition, minimum effective dose (MED)
Description: The experiment was performed by a minor modification of method of Carlson et al. [Agents and Actions, 21, 379 (1987)]. Groups each consisting of 10 male dd mice (weighing 28 to 32 g) were used, and 100 mg/kg of test compound or a saline (control) was orally administrated. One hour after the administration of test compound, 40 μg/kg of PAF (manufactured by Avanti Polar Lipids Co., Ltd.) was intravenously administered. Two hours after PAF injection, the mortality rate of the animals was observed.

[5] = relative value for control (1.00), read-out: Na+/K+
[6] = relative value for control, read-out: Excretion of K+
[7] = relative value for control, read-out: Excretion of Na+
[8] = relative value for control, read-out: Urine volume

## O=C1N2CCN=C2c2[nH]cnc2N1Cc1ccccc1 [9 Sa]
[1]
  Minimum lethal dose (MLD): > 300 mg/kg
[2]; [5]
  response vs control in vivo at 25 mg/kg: 126%
[2]; [6]
  response vs control in vivo at 25 mg/kg: 31%
[2]; [7]
  response vs control in vivo at 25 mg/kg: 65%
[2]; [8]
  response vs control in vivo at 25 mg/kg: 88%

## CCCN1C(=O)N2C(=NCC2c2ccccc2)c2[nH]c(C3CCCC3)nc21 (centres unmarked) [11 Sa]
[1]
  Minimum lethal dose (MLD): > 300 mg/kg

## CCCN1C(=O)N2CC(Cc3ccccc3)N=C2c2[nH]c(C3CCCC3)nc21 (centres unmarked) [12 Sa]
[1]
  Minimum lethal dose (MLD): > 300 mg/kg
[2]; [5]
  response vs control in vivo at 1.6 mg/kg: 152%
[2]; [6]
  response vs control in vivo at 1.6 mg/kg: 33%
[2]; [7]
  response vs control in vivo at 1.6 mg/kg: 102%
[2]; [8]
  response vs control in vivo at 1.6 mg/kg: 159%

## CCCN1C(=O)N2CC(C)(C)N=C2c2[nH]c(C3CCCC3)nc21 [14 Sa]
[1]
  Minimum lethal dose (MLD): > 300 mg/kg
[2]; [5]
  response vs control in vivo at 6.25 mg/kg: 123%
  response vs control in vivo at 25 mg/kg: 200%
[2]; [6]
  response vs control in vivo at 6.25 mg/kg: 43%
  response vs control in vivo at 25 mg/kg: 31%
[2]; [7]
  response vs control in vivo at 6.25 mg/kg: 75%
  response vs control in vivo at 25 mg/kg: 162%
[2]; [8]
  response vs control in vivo at 6.25 mg/kg: 113%
  response vs control in vivo at 25 mg/kg: 145%
[3]
  Creatinine in serum, glycerol treated, test compound administrated: 2.62 ± 0.40 mg/dL
  Urea nitrogen in serum, glycerol treated, test compound administrated: 94.8 ± 14.3 mg/dL
trachea
  IC50: 11 µM
[4]
  minimal effective dose: 100 mg/kg

## CCCN1C(=O)N2CC(c3ccccc3)N=C2c2[nH]c(C3CCCC3)nc21 (centres unmarked) [15 Sa]
[1]
  Minimum lethal dose (MLD): > 300 mg/kg
[2]; [5]
  response vs control in vivo at 6.25 mg/kg: 232%
  response vs control in vivo at 25 mg/kg: 151%
[2]; [6]
  response vs control in vivo at 6.25 mg/kg: 9%
  response vs control in vivo at 25 mg/kg: 26%
[2]; [7]
  response vs control in vivo at 6.25 mg/kg: 153%
  response vs control in vivo at 25 mg/kg: 90%
[2]; [8]
  response vs control in vivo at 6.25 mg/kg: 137%
  response vs control in vivo at 25 mg/kg: 95%
[3]
  Creatinine in serum, glycerol treated, test compound administrated: 2.34 ± 0.12 mg/dL
  Urea nitrogen in serum, glycerol treated, test compound administrated: 101.8 ± 11.8 mg/dL
trachea
  IC50: > 40 µM
[4]
  minimal effective dose: 100 mg/kg

## CCCN1C(=O)N2CC(C)N=C2c2[nH]c(C3CCCC3)nc21 (centres unmarked) [16 Sa]
[2]; [5]
  response vs control in vivo at 1.6 mg/kg: 152%
[2]; [6]
  response vs control in vivo at 1.6 mg/kg: 31%
[2]; [7]
  response vs control in vivo at 1.6 mg/kg: 99%
[2]; [8]
  response vs control in vivo at 1.6 mg/kg: 80%
[3]
  Creatinine in serum, glycerol treated, test compound administrated: 2.38 ± 0.24 mg/dL
  Urea nitrogen in serum, glycerol treated, test compound administrated: 80.9 ± 9.5 mg/dL

## CCCC1CN2C(=O)N(CCC)c3nc(C4CCCC4)[nH]c3C2=N1 (centres unmarked) [17 Sa]
[1]
  Minimum lethal dose (MLD): > 300 mg/kg
[2]; [5]
  response vs control in vivo at 6.25 mg/kg: 291%
[2]; [6]
  response vs control in vivo at 6.25 mg/kg: 18%
[2]; [7]
  response vs control in vivo at 6.25 mg/kg: 158%
[2]; [8]
  response vs control in vivo at 6.25 mg/kg: 138%
[3]
  Creatinine in serum, glycerol treated, test compound administrated: 2.35 ± 0.11 mg/dL
  Urea nitrogen in serum, glycerol treated, test compound administrated: 88.0 ± 4.9 mg/dL

## CCCN1C(=O)N2C(=NCC2CC)c2[nH]c(C3CCCC3)nc21 (centres unmarked) [18 Sa]
[1]
  Minimum lethal dose (MLD): > 300 mg/kg
[2]; [5]
  response vs control in vivo at 25 mg/kg: 120%
[2]; [6]
  response vs control in vivo at 25 mg/kg: 37%
[2]; [7]
  response vs control in vivo at 25 mg/kg: 65%
[2]; [8]
  response vs control in vivo at 25 mg/kg: 92%
[3]
  Creatinine in serum, glycerol treated, test compound administrated: 2.85 ± 0.33 mg/dL
  Urea nitrogen in serum, glycerol treated, test compound administrated: 101.2 ± 9.9 mg/dL

## CCCN1C(=O)N2C(=NCC2C)c2[nH]c(C3CCCC3)nc21 (centres unmarked) [19 Sa]
[1]
  Minimum lethal dose (MLD): > 300 mg/kg
[2]; [5]
  response vs control in vivo at 25 mg/kg: 143%
[2]; [6]
  response vs control in vivo at 25 mg/kg: 31%
[2]; [7]
  response vs control in vivo at 25 mg/kg: 87%
[2]; [8]
  response vs control in vivo at 25 mg/kg: 111%

## Cn1c(=O)c2[nH]cnc2n(C)c1=O [Aminophylline, reference compound]
[3]
  Creatinine in serum, glycerol treated, test compound administrated: 1.72 ± 0.07 mg/dL
  Urea nitrogen in serum, glycerol treated, test compound administrated: 30.6 ± 2.0 mg/dL

## CCCN1C(=O)N2CCN=C2c2c1ncn2C [Compound 1, 1-Methyl-4-n-propyl-1,4,7,8-tetrahydro-5H-imidazo[2,1-i]purin-5-one]
[1]
  Minimum lethal dose (MLD): > 300 mg/kg
[3]
  Creatinine in serum, glycerol treated, test compound administrated: 1.94 ± 0.16 mg/dL
trachea
  IC50: 0.003 µM
[4]
  minimal effective dose: > 100 mg/kg

## CCCN1C(=O)N2CC(CC)N=C2c2c1ncn2C (centres unmarked) [Compound 4, 8-Ethyl-1-methyl-4-n-propyl-1,4,7,8-tetrahydro-5H-imidazo[2,1-i]purin-5-one]
[1]
  Minimum lethal dose (MLD): > 300 mg/kg
trachea
  IC50: 0.036 µM
[4]
  minimal effective dose: > 100 mg/kg

## CCCN1C(=O)N2CCN=C2c2[nH]c(C3CCCC3)nc21 [Compound 6, 2-Cyclopentyl-4-n-propyl-1,4,7,8-tetrahydro-5H-imidazo[2,1-i]purin-5-one]
[2]; [5]
  response vs control in vivo at 1.6 mg/kg: 155%
[2]; [6]
  response vs control in vivo at 1.6 mg/kg: 30%
[2]; [7]
  response vs control in vivo at 1.6 mg/kg: 102%
[2]; [8]
  response vs control in vivo at 1.6 mg/kg: 121%
[3]
  Creatinine in serum, glycerol treated, test compound administrated: 1.81 ± 0.12 mg/dL
trachea
  IC50: > 40 µM
[4]
  minimal effective dose: 50 mg/kg

## CCCN1C(=O)N2CCN=C2c2c1nc(C1CCCC1)n2C [Compound 7, 2-Cyclopentyl-1-methyl-4-n-propyl-1,4,7,8-tetrahydro-5H-imidazo[2,1-i]purin-5-one]
[2]; [5]
  response vs control in vivo at 25 mg/kg: 137%
[2]; [6]
  response vs control in vivo at 25 mg/kg: 56%
[2]; [7]
  response vs control in vivo at 25 mg/kg: 114%
[2]; [8]
  response vs control in vivo at 25 mg/kg: 128%
[3]
  Creatinine in serum, glycerol treated, test compound administrated: 1.70 ± 0.17 mg/dL
  Urea nitrogen in serum, glycerol treated, test compound administrated: 64.3 ± 7.1 mg/dL
trachea
  IC50: 8.1 µM
[4]
  minimal effective dose: > 100 mg/kg

## CCCN1C(=O)N2CC(CC)N=C2c2[nH]c(C3CCCC3)nc21 (centres unmarked) [Compound 8, 2-Cyclopentyl-8-ethyl-4-n-propyl-1,4,7,8-tetrahydro-5H-imidazo[2,1-i]purin-5-one]
[2]; [5]
  response vs control in vivo at 6.25 mg/kg: 145%
[2]; [6]
  response vs control in vivo at 6.25 mg/kg: 1%
[2]; [7]
  response vs control in vivo at 6.25 mg/kg: 46%
[2]; [8]
  response vs control in vivo at 6.25 mg/kg: 42%
[3]
  Creatinine in serum, glycerol treated, test compound administrated: 3.17 ± 0.32 mg/dL
  Urea nitrogen in serum, glycerol treated, test compound administrated: 121.2 ± 9.0 mg/dL
trachea
  IC50: 72 µM

## O=C1N2CCN=C2c2[nH]cnc2N1Cc1ccccc1 [Compound 9, 4-Benzyl-1,4,7,8-tetrahydro-5H-imidazo[2,1-i]purin-5-one]
trachea
  IC50: > 40 µM
[4]
  minimal effective dose: 100 mg/kg

## O=c1c2[nH]cnc2nc2n1CCCC2 [Compound 24, 1,5,6,7,8,10-Hexahydropyrido[1,2-a]purin-10-one]
[1]
  Minimum lethal dose (MLD): > 300 mg/kg

## Cn1cnc2nc3n(c(=O)c21)CCCC3 [Compound 25, 1-Methyl-1,5,6,7,8,10-hexahydropyrido[1,2-a]purin-10-one]
[1]
  Minimum lethal dose (MLD): > 300 mg/kg

## NS(=O)(=O)c1cc(C(=O)O)c(NCc2ccco2)cc1Cl [Furosemide, reference compound]
[2]; [5]
  response vs control in vivo at 25 mg/kg: 107%
[2]; [8]
  response vs control in vivo at 25 mg/kg: 75%
[3]
  Creatinine in serum, glycerol treated, test compound administrated: 4.17 ± 0.41 mg/dL
  Urea nitrogen in serum, glycerol treated, test compound administrated: 150.3 ± 13.7 mg/dL
